How the values were obtained:
Conditions in all cases: 72 h
Caco-2 [1] = test: cell viability relative to DMSO; higher = less toxic
Calu-3 [2] = test: as above
HepG2 [3] = test: as above
Vero E6 [4] = test: as above
Caco-2 [5] = test: relative viability EC50 (midpoint between 100% and the lowest measured viability); higher = less toxic
Calu-3 [6] = test: as above
HepG2 [7] = test: as above
Vero E6 [8] = test: as above
Caco-2 [9] = test: drug sensitivity score (DSS) for viability; higher = more toxic; extreme values may be limits of the assay
Calu-3 [10] = test: as above
HepG2 [11] = test: as above
Vero E6 [12] = test: as above
U2OS [13] = test: cell viability relative to DMSO; higher = less toxic
U2OS [14] = test: relative viability EC50 (midpoint between 100% and the lowest measured viability); higher = less toxic
U2OS [15] = test: drug sensitivity score (DSS) for viability; higher = more toxic; extreme values may be limits of the assay

Row | SMILES | cell viability (Caco-2 [1]; 1 nM) | cell viability (Caco-2 [1]; 10 nM) | cell viability (Caco-2 [1]; 100 nM) | cell viability (Caco-2 [1]; 1000 nM) | cell viability (Caco-2 [1]; 10000 nM) | cell viability (Calu-3 [2]; 1 nM) | cell viability (Calu-3 [2]; 10 nM) | cell viability (Calu-3 [2]; 100 nM) | cell viability (Calu-3 [2]; 1000 nM) | cell viability (Calu-3 [2]; 10000 nM) | cell viability (HepG2 [3]; 1 nM) | cell viability (HepG2 [3]; 10 nM) | cell viability (HepG2 [3]; 100 nM) | cell viability (HepG2 [3]; 1000 nM) | cell viability (HepG2 [3]; 10000 nM) | cell viability (Vero E6 [4]; 1 nM) | cell viability (Vero E6 [4]; 10 nM) | cell viability (Vero E6 [4]; 100 nM) | cell viability (Vero E6 [4]; 1000 nM) | cell viability (Vero E6 [4]; 10000 nM) | relative viability EC50 (Caco-2 [5]) | relative viability EC50 (Calu-3 [6]) | relative viability EC50 (HepG2 [7]) | relative viability EC50 (Vero E6 [8]) | drug sensitivity score (Caco-2 [9]) | drug sensitivity score (Calu-3 [10]) | drug sensitivity score (HepG2 [11]) | drug sensitivity score (Vero E6 [12]) | cell viability (U2OS [13]; 1 nM) | cell viability (U2OS [13]; 10 nM) | cell viability (U2OS [13]; 100 nM) | cell viability (U2OS [13]; 1000 nM) | cell viability (U2OS [13]; 10000 nM) | relative viability EC50 (U2OS [14]) | drug sensitivity score (U2OS [15])
1 | O=[N+]([O-])c1cn2c(n1)OC[C@@H](OCc1ccc(OC(F)(F)F)cc1)C2 [pretomanid] | 98.3% | 100% | 102% | 99.3% | 92.6% | 101% | 96.5% | 96.4% | 112% | 103% | 106% | 103% | 102% | 96.3% | 100% | 111% | 97.6% | 103% | 95.8% | 102% | > 10 µM | > 10 µM | > 10 µM | > 10 µM | 0 | 0 | 0 | 0 |  |  |  |  |  |  | 
2 | N#Cc1nn(-c2c(Cl)cc(C(F)(F)F)cc2Cl)c(N)c1[S+]([O-])C(F)(F)F (centres undefined) [fipronil] | 103% | 105% | 102% | 96.7% | 94.1% | 99.3% | 92% | 102% | 103% | 102% | 98.2% | 109% | 97.8% | 91.1% | 103% | 106% | 102% | 99.2% | 101% | 102% | > 10 µM | > 10 µM | > 10 µM | > 10 µM | 0 | 0 | 0 | 0 |  |  |  |  |  |  | 
3 | COc1ccc(-c2cc(=O)c3c(OC)c(OC)c(OC)c(OC)c3o2)cc1OC [nobiletin] | 86.4% | 99.4% | 100% | 95.3% | 80.9% | 99.5% | 111% | 106% | 104% | 83.8% | 96.9% | 108% | 102% | 83.2% | 68.6% | 102% | 104% | 94.5% | 93.5% | 91.6% | > 10 µM | > 10 µM |  | > 10 µM | 1.1 | 0.2 | 3.4 | 0 | 94.4% | 103% | 94% | 99.7% | 92.3% | > 10 µM | 0
4 | Nc1nccc(-c2ccc3noc(-c4ccc(Cl)cc4)c3c2)n1 [PIM-1-Inhibitor-2] | 98% | 97% | 91.9% | 102% | 98.2% | 100% | 91.4% | 99% | 97% | 88.8% | 96.8% | 94.2% | 92.6% | 92.7% | 57.7% | 97.7% | 103% | 104% | 98.5% | 99.7% | > 10 µM | > 10 µM |  | > 10 µM | 0 | 0 | 3.4 | 0 | 98.3% | 104% | 93.2% | 99.6% | 93.6% | > 10 µM | 0
5 | O=C1CNC(=O)CN1 [piperazinedione] | 98.3% | 102% | 98.9% | 99.4% | 94.8% | 91.8% | 99.4% | 91.8% | 93.4% | 94% | 102% | 94.9% | 96.4% | 100% | 103% | 99.5% | 96.4% | 102% | 91.4% | 74.7% | > 10 µM | > 10 µM | > 10 µM |  | 0 | 0 | 0 | 2.1 | 99% | 99% | 97.4% | 101% | 99.8% | > 10 µM | 0
6 | CO[C@@H](C(=O)N1Cc2[nH]nc(NC(=O)c3ccc(N4CCN(C)CC4)cc3)c2C1)c1ccccc1 [danusertib] | 94.7% | 95.4% | 94.9% | 82.9% | 71.7% | 89% | 93.8% | 77.1% | 76.9% | 52.9% | 93.4% | 95.9% | 78.3% | 55.8% | 42.6% | 104% | 101% | 104% | 98.6% | 84.2% |  |  | 0.192 µM | > 10 µM | 2.9 | 7.5 | 10.7 | 0.4 | 99.6% | 103% | 93.9% | 74.8% | 31% | 1.35 µM | 6.8
7 | O=C(O)CCn1c2c(c3ccccc31)C[C@H](NS(=O)(=O)c1ccc(F)cc1)CC2 [ramatroban] |  |  |  |  |  | 92.4% | 97.7% | 94.1% | 104% | 101% | 104% | 95.6% | 103% | 93.6% | 110% | 98% | 95.7% | 92.4% | 97.4% | 104% |  | > 10 µM | > 10 µM | > 10 µM |  | 0 | 0 | 0 | 100% | 98.4% | 95.8% | 101% | 104% | > 10 µM | 0
8 | C[C@@]1(C(=O)O)NCCc2cc(O)c(O)cc21 [salsolinol-1-carboxylic-acid] | 103% | 101% | 97.4% | 109% | 106% | 98.9% | 105% | 103% | 106% | 107% | 100% | 106% | 95% | 94.3% | 107% | 100% | 95.2% | 94.8% | 92.2% | 104% | > 10 µM | > 10 µM | > 10 µM | > 10 µM | 0 | 0 | 0 | 0 |  |  |  |  |  |  | 
9 | CCC(C)(CN(C)C)OC(=O)c1ccccc1 (centres undefined) [amyleine] | 115% | 88.1% | 97.3% | 101% | 92.7% | 106% | 95.6% | 101% | 102% | 114% | 106% | 103% | 109% | 98.1% | 88.7% | 108% | 99.8% | 99% | 104% | 100% | > 10 µM | > 10 µM | > 10 µM | > 10 µM | 0 | 0 | 0.1 | 0 |  |  |  |  |  |  | 
10 | CN1c2ccccc2C(=O)N2CCc3c([nH]c4ccccc34)C21 (stereo in doubt) [evodiamine] | 101% | 99.6% | 104% | 76.1% | 55.7% | 96.8% | 89.9% | 96.7% | 80.6% | 62.4% | 91.3% | 94.5% | 98.6% | 47.3% | 36.3% | 89.9% | 100% | 95.8% | 74.1% | 33.7% |  |  | 0.508 µM | 1.27 µM | 5.2 | 3.8 | 9.9 | 6.7 | 94.7% | 93.7% | 99.7% | 83.6% | 43% | 1.44 µM | 5.5
11 | Cc1ccc(NC(=O)C(C)C)cc1C1CCN(Cc2ccc(Oc3ccc(F)c(F)c3)cc2)CC1 | 90.7% | 101% | 98.4% | 98.3% | 62.8% |  |  |  |  |  | 105% | 97.4% | 97.4% | 103% | 31.5% | 106% | 102% | 99.5% | 100% | 75.3% |  |  | 3.39 µM | > 10 µM | 2 |  | 3.5 | 0.9 | 96.2% | 95.8% | 99.5% | 94.6% | 80.3% | > 10 µM | 1.2
12 | COc1ccc(-c2csc(NC(=O)[C@H]3CCCCN3S(=O)(=O)c3ccc(C)cc3)n2)cc1 [ML277] | 89.5% | 93.2% | 97.8% | 90.6% | 69.2% | 91% | 104% | 92.1% | 92.6% | 99.2% | 97.7% | 99.7% | 112% | 101% | 60.1% | 109% | 102% | 105% | 105% | 99.9% |  | > 10 µM |  | > 10 µM | 2.6 | 0 | 1.9 | 0 | 98.4% | 98.1% | 101% | 94.2% | 90.1% | > 10 µM | 0
13 | FC(F)(F)c1cccc(C2=CCN(CCc3ccc4ccccc4c3)CC2)c1 [xaliproden] | 106% | 88.6% | 89% | 104% | 107% | 109% | 105% | 95.5% | 109% | 95.9% |  |  |  |  |  | 100% | 89.7% | 92.7% | 92.7% | 104% | > 10 µM | > 10 µM |  | > 10 µM | 0 | 0 |  | 0 | 98.4% | 96.3% | 99.5% | 105% | 111% | > 10 µM | 0
14 | CC(C)Oc1ccc(Cc2ccc(NC3=NCCN3)cc2)cc1 | 102% | 96.1% | 99.3% | 99.4% | 82.3% | 104% | 99.8% | 95.7% | 96.6% | 88.2% | 102% | 94.6% | 104% | 97.4% | 71.6% | 96.9% | 97.6% | 101% | 99.5% | 96.7% | > 10 µM | > 10 µM |  | > 10 µM | 0.5 | 0 | 1.6 | 0 | 95.3% | 102% | 95.3% | 98.4% | 90.7% | > 10 µM | 0
15 | O=C1NC(=O)/C(=C/c2ccc3c(c2)OC(F)(F)O3)S1 | 94.5% | 97.9% | 84.6% | 81% | 35.1% | 97.4% | 89.3% | 46.8% | 30.5% | 24.7% | 95.8% | 95.6% | 101% | 98.9% | 75.2% | 103% | 94.6% | 87.8% | 63% | 45.1% | 1.62 µM | 0.0473 µM | > 10 µM | 0.401 µM | 5.6 | 20.7 | 1.1 | 8.2 | 94.3% | 96.2% | 89.6% | 91.2% | 51.3% |  | 4

— the supplement of paper PMC13380429
